Test results published in patent US12636238B2, “Hypochlorous acid-based eyelid cleansers” (OCuSOFT, Inc., priority 2023, dated 2026).
Like-named read-outs stand apart in the source and are kept apart here.

Experiment: comparative stability of hypochlorous acid in the presence of various ingredients (free available chlorine, FAC)
Format: physicochemical
From the text: Free available chlorine or free active chlorine (FAC) refers to the amount of chlorine that is available to disinfect or kill microorganisms. Importantly, FAC covers many forms of chlorine, such as hypochlorous acid and hypohalite anion, in addition to freely available chlorine. Measurement and quantification of FAC is typically accomplished by a titration or colorimetric method. In certain embodiments, the eyelid cleanser composition contains 10 to 300 ppm of free available chlorine (FAC).
Table 1 illustrates the comparative stability of hypochlorous acid in the presence of various ingredients. The inventors determined that only specific ingredients disclosed in the disclosed embodiments are compatible with hypochlorous acid. For example, after 7 days in solution with sodium laureth sulfate, the FAC concentration decreased by about 4% per day.

[1] = FAC, component 0.01 M, time 2 days
[2] = component tested at 0.01 M in hypochlorous acid solution, start
[3] = component tested at 0.50%, start
[4] = component tested at 0.5%^, start

For `CC(O)CO` (centres unmarked) [Propylene Glycol], the “% change/day” value (FAC, component 1%, time 3 days) was −11%, the “FAC End” value (component 1%, time 3 days) was 67 ppm and the “FAC Start” value (component tested at 1%, start) was 99 ppm.
In the case of `O=P([O-])(O)O.[Na+]` [Sodium Monobasic Phosphate], the “% change/day” value [1] is reported as 2%, the “FAC End” value (component 0.01 M, time 2 days) is reported as 374.4 ppm and the “FAC Start” value [2] is reported as 361.4 ppm.
With `CC(=O)[O-].[Na+]` [Sodium Acetate] the “% change/day” value was 2%, the “FAC End” value was 377 ppm and the “FAC Start” value was 362.1 ppm.
In the case of `CC(C)(CO)C(O)C(=O)NCCCO` (centres unmarked) [DI-Panthenol], the “% change/day” value (FAC, component 1%, time 3 days) is reported as −26%, the “FAC End” value (component 1%, time 3 days) is reported as 23 ppm and the “FAC Start” value (component tested at 1%, start) is reported as 101 ppm.
In the case of `CCCCCCCCOC(=O)CC(C(=O)OCCCCCCCC)S(=O)(=O)O.[Na]` (centres unmarked) [Dioctyl Sulfosuccinate Sodium], the “% change/day” value (FAC, component 0.50%, time 10 days) is reported as −6%, the “% change/day” value (FAC, component 0.5%^, time 38 days) is reported as −1% and the “FAC End” value (component 0.50%, time 10 days) is reported as 113 ppm. For the same molecule, the “FAC End” value (component 0.5%^, time 38 days) was 194 ppm, the “FAC Start” value [3] was 289 ppm and the “FAC Start” value [4] was 289 ppm.
For `O=C(O)CC(O)(CC(=O)O)C(=O)O` [Citric Acid], the “% change/day” value [1] was −49%, the “FAC End” value (component 0.01 M, time 2 days) was 5.1 ppm and the “FAC Start” value [2] was 188.9 ppm.
For Polysorbate 20, the “% change/day” value (FAC, component 0.50%, time 2 days) was −16%, the “FAC End” value (component 0.50%, time 2 days) was 264.9 ppm and the “FAC Start” value [3] was 391 ppm.
For `O=P([O-])([O-])O.[Na+].[Na+]` [Sodium Dibasic Phosphate], the “% change/day” value [1] was 16%, the “FAC End” value (component 0.01 M, time 2 days) was 331.1 ppm and the “FAC Start” value [2] was 250 ppm.
With Sodium Laureth Sulfate the “% change/day” value (FAC, component 0.5%^, time 7 days) was −4%, the FAC concentration decrease (after 7 days in solution) was “about 4 % per day” and the “FAC End” value (component 0.5%^, time 7 days) was 208 ppm. The “FAC Start” value [4] was 287 ppm.
For `O=C([O-])CC(O)(CC(=O)[O-])C(=O)[O-].[Na+].[Na+].[Na+]` [Sodium Citrate], the “% change/day” value [1] was −49%, the “FAC End” value (component 0.01 M, time 2 days) was 2.6 ppm and the “FAC Start” value [2] was 125.1 ppm.
In the case of `CCCCCCCCCCCCOS(=O)(=O)[O-].[Na+]` [Sodium Lauryl Sulfate], the “% change/day” value (FAC, component 0.5%^, time 238 days) is reported as 0%, the “FAC End” value (component 0.5%^, time 238 days) is reported as 11 ppm and the “FAC Start” value [4] is reported as 267 ppm.
For `CC(=O)O` [Acetic Acid], the “% change/day” value [1] was 2%, the “FAC End” value (component 0.01 M, time 2 days) was 384.6 ppm and the “FAC Start” value [2] was 367.5 ppm.
For `CCCCCCCCCCO[C@@H]1O[C@H](CO)[C@@H](O)[C@H](O)[C@H]1O` [Decyl Glucoside], the “% change/day” value (FAC, component 1%, time 3 days) was −100%, the “FAC End” value (component 1%, time 3 days) was 0 ppm and the FAC Start (component tested at 1%, start) was 3 ppm. For the same molecule, the “degradation of hypochlorous acid (observation)” value (in the presence of the component) was “immediate degradation”.
In the case of `OCC(O)CO` [Glycerin], the “% change/day” value (FAC, component 1%, time 3 days) is reported as −17%, the “FAC End” value (component 1%, time 3 days) is reported as 50 ppm and the “FAC Start” value (component tested at 1%, start) is reported as 102 ppm.
